Reference: ChEMBL document CHEMBL4118044, “Manzamine Alkaloids from an Acanthostrongylophora sp. Sponge” (J Nat Prod, 2017)
In brackets after ≈: the same amount, converted by molar mass.

Key:
[1] = system: Kocuria rhizophila; assay: Antibacterial activity against Kocuria rhizophila NBRC 12708 after 24 hrs by serial two fold dilution method; type: functional; conditions: NBRC 12708, 24 h
[2] = molecular target: Sodium/potassium-transporting ATPase; assay: Inhibition of KCl-stimulated Na+/K+-ATPase in human placental membrane vesicles measured for 60 secs by 3-O-methylfluorescein phosphate dye based fluorometric method; type: cell membranes, Placenta
[3] = system: Escherichia coli; assay: Antibacterial activity against Escherichia coli ATCC 35270 after 24 hrs by serial two fold dilution method; type: functional; conditions: ATCC 35270, 24 h
[4] = system: Bacillus spizizenii; assay: Antibacterial activity against Bacillus subtilis ATCC 6633 after 24 hrs by serial two fold dilution method; type: functional; conditions: ATCC 6633, 24 h
[5] = system: Staphylococcus aureus; assay: Antibacterial activity against Staphylococcus aureus ATCC 6538p after 24 hrs by serial two fold dilution method; type: functional
[6] = system: Proteus hauseri; assay: Antibacterial activity against Proteus hauseri NBRC 3851 after 24 hrs by serial two fold dilution method; type: functional; conditions: NBRC 3851, 24 h
[7] = system: A549; assay: Cytotoxicity against human A549 cells by MTT assay; type: functional; conditions: read-out: LC50 (the source's name)
[8] = system: K562; assay: Cytotoxicity against human K562 cells by MTT assay; type: functional; conditions: read-out: LC50 (the source's name)
[9] = molecular target: T1, Sortase A (Staphylococcus aureus, UniProt Q9S446); assay: Inhibition of Staphylococcus aureus ATCC 6538p SortA expressed in Escherichia coli using Dabcyl-QALPETGEE-Edans as substrate after 1 hr by fluorescence spectrophotometric method
T1 sequence (Q9S446 whole entry): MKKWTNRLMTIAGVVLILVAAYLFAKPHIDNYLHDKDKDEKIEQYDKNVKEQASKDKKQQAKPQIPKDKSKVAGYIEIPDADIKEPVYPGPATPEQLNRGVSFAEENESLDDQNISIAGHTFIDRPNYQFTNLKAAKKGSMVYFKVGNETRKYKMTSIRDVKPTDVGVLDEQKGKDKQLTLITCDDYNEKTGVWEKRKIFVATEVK

[10] = Inhibition of Magnaporthe grisea Guy 11 ICL; parameters: species or system Pyricularia grisea
[11] = system: Salmonella typhimurium; assay: Antibacterial activity against Salmonella enterica ATCC 14028 after 24 hrs by serial two fold dilution method; type: functional, Salmonella enterica subsp. enterica serovar Typhimurium; conditions: ATCC 14028, 24 h

Structure (SMILES) | MIC [1] | IC50 [2] | MIC [3] | MIC [4] | MIC [5] | MIC [6] | CC50 [7] | CC50 [8] | IC50 [9] | IC50 [10] | MIC [11]
O[C@@H]1CC[C@@]23C[C@]45CN6CCCC/C=C\CC[C@](O)(C=C(c7nccc8c7[nH]c7ccccc78)[C@@H]4CC6)[C@@H]5N2CC[C@@H]1O[C@@]12CC[C@@H](O3)[C@@H](O)CCN1[C@@H]1[C@]3(CN4CCCC/C=C\CC[C@]1(O)C=C(c1nccc5c1[nH]c1ccccc15)[C@@H]3CC4)C2 | 1.6 µg/mL (≈ 1.38 µM) | > 150 µM | > 100 µg/mL | 1.6 µg/mL (≈ 1.38 µM) | > 100 µg/mL | > 100 µg/mL | 13 µM | 12 µM | > 150 µM | 27 µM | 0.78 µg/mL (≈ 0.672 µM)
C1=C\CC[C@]23O[C@H]2[C@@H](c2nccc4c2[nH]c2ccccc24)[C@@H]2CCN(CCCC/1)C[C@@]21CCCCCCCCN[C@H]13 | 100 µg/mL (≈ 181 µM) | > 150 µM | > 100 µg/mL | 100 µg/mL (≈ 181 µM) | > 100 µg/mL | > 100 µg/mL | 6.5 µM | 9.6 µM | > 150 µM | > 150 µM | 50 µg/mL (≈ 90.4 µM)
Cl.[O-][n+]1ccc2c([nH]c3ccccc32)c1C1=C[C@@]2(O)CC/C=C\CCCCN3CC[C@@H]1[C@]1(CC/C=C\CCCCN[C@H]12)C3 | > 100 µg/mL | > 150 µM | > 100 µg/mL | > 100 µg/mL | 32 µg/mL | > 100 µg/mL | 4.7 µM | 8.1 µM | 81 µM | 26 µM | 32 µg/mL
O[C@H]1/C=C\[C@H]2C[C@]34CN5CCCC/C=C\CC[C@](O)(C=C(c6nccc7c6[nH]c6ccccc67)[C@@H]3CC5)[C@@H]4N2CCC1 | 6.3 µg/mL (≈ 11.2 µM) | > 150 µM | > 100 µg/mL | 6.3 µg/mL (≈ 11.2 µM) | 25 µg/mL (≈ 44.3 µM) | 13 µg/mL (≈ 23 µM) | 5.8 µM | 7.2 µM | > 150 µM | 140 µM | 1.6 µg/mL (≈ 2.83 µM)
Cl.[O-][N+]1=C(C2=C[C@@]3(O)CC/C=C\CCCCN4CC[C@@H]2[C@]2(CC/C=C\CCCCN[C@H]23)C4)c2[nH]c3ccccc3c2CC1 | 64 µg/mL | 110 µM | > 100 µg/mL | 64 µg/mL | 32 µg/mL | 32 µg/mL | 5.7 µM | 9.5 µM | > 150 µM | > 150 µM | > 100 µg/mL
O[C@]12C=C(c3nccc4c3[nH]c3ccccc34)[C@@H]3CCN(CCCC/C=C\CC1)C[C@@]31C[C@@H]3C=C[C@H]4CCC[N@+]43[C@H]12.[Cl-] | 16 µg/mL | > 150 µM | 64 µg/mL | 32 µg/mL | 8 µg/mL | 8 µg/mL | 4.6 µM | 7.2 µM |  | > 150 µM | 16 µg/mL
Cn1cncc1C(=O)c1nccc2c1[nH]c1ccccc12 | 25 µg/mL (≈ 90.5 µM) | > 150 µM | > 100 µg/mL | 50 µg/mL (≈ 181 µM) | > 100 µg/mL | > 100 µg/mL | 12 µM | 13 µM | > 150 µM | > 150 µM | 25 µg/mL (≈ 90.5 µM)
Cn1cncc1C(=O)C1=NCCc2c1[nH]c1ccccc21 | 25 µg/mL (≈ 89.8 µM) | > 150 µM | > 100 µg/mL | 25 µg/mL (≈ 89.8 µM) | 50 µg/mL (≈ 180 µM) | 50 µg/mL (≈ 180 µM) | 9.9 µM | 9.2 µM | > 150 µM | 75 µM | 6.3 µg/mL (≈ 22.6 µM)
O=C(O)CC[N+](=O)[O-] |  |  |  |  |  |  |  |  |  | 19 µM | 
O[C@@H]1CCCN2[C@@H](CC1)C[C@]13CN4CCCC/C=C\CC[C@](O)(C=C(c5nccc6c5[nH]c5ccccc56)[C@@H]1CC4)[C@H]23 [32,33-DIHYDRO-31-HYDROXYMANZAMINE A] | 13 µg/mL (≈ 22.9 µM) | > 150 µM | > 100 µg/mL | 25 µg/mL (≈ 44.1 µM) | 50 µg/mL (≈ 88.2 µM) | 100 µg/mL (≈ 176 µM) | 8.2 µM | 8.4 µM | > 150 µM | 68 µM | 1.6 µg/mL (≈ 2.82 µM)
CC1(C)S[C@@H]2[C@H](NC(=O)[C@H](N)c3ccccc3)C(=O)N2[C@H]1C(=O)O [AMPICILLIN] | 0.39 µg/mL (≈ 1.12 µM) |  | 6.3 µg/mL (≈ 18 µM) | 0.78 µg/mL (≈ 2.23 µM) | 0.39 µg/mL (≈ 1.12 µM) | 1.6 µg/mL (≈ 4.58 µM) |  |  |  |  | 0.39 µg/mL (≈ 1.12 µM)
COc1cccc2c1C(=O)c1c(O)c3c(c(O)c1C2=O)C[C@@](O)(C(=O)CO)C[C@@H]3O[C@H]1C[C@H](N)[C@H](O)[C@H](C)O1 [DOXORUBICIN] |  |  |  |  |  |  | 0.92 µM | 1.1 µM |  |  | 
O[C@]12C=C(c3nccc4c3[nH]c3ccccc34)[C@@H]3CCN(CCCC/C=C\CC1)C[C@@]31C[C@@H]3/C=C\CCCCN3[C@H]12 [MANZAMINE A] | 50 µg/mL (≈ 91.1 µM) | > 150 µM | > 100 µg/mL | 50 µg/mL (≈ 91.1 µM) | > 100 µg/mL | > 100 µg/mL | 8.3 µM | 11 µM | > 150 µM | 140 µM | 3.1 µg/mL (≈ 5.65 µM)
